One data set relates to IL-10 KO mice. Put plainly: Colitis development in vitamin D deficient IL-10 KO mice, compound given in the diet. The data set is classed as in vivo, mice (C57BL/6). To be noted: 2-MP 720 ng/d; for Development of colitis symptoms (in words): IL-10 KO mice, 2-MD 0.12 ng/d in the diet; for Incidence (# with colitis/n): incidence defined as SI/BW % of greater than 6.5, vitamin D deficient for 5 weeks, then in the diet for the remainder of 9-10 weeks: 1,25(OH)2D3 5 ng/d; for Incidence (# with colitis/n) / SI/BW (small intestine weight / body weight, all mice in the group): 2-MD 0.12 ng/d; for SI/BW (small intestine weight / body weight, all mice in the group): wildtype C57BL/6 values are 5-6, in the diet: 1,25(OH)2D3 5 ng/d. The text has this: Recently a number of transgenic animals have been developed in which IBD symptoms occur spontaneously. One of the best animal models for Crohn's disease is the IL-10 knockout (KO) mouse (Kuhn et al. 1993, Mac Donald 1994). In conventional animal facilities, the IL-10 KO mice develop enterocolitis within 5-8 weeks of life (Kuhn et al. 1993). Approximately 30% of the IL-10 KO mice die following the development of severe anemia and weight loss (Kuhn et al. 1993). […] In addition mice raised in specific pathogen free facilities develop milder disease which doesn't result in the death of the mice (Kuhn et al. 1993). There are limitations involved in studying IL-10 KO mice as a model of IBD. If vitamin D is a regulator of IL-10 production then the results in this animal model may not represent […] what may happen in a “normal” immune response. However patients with Crohn's disease show similar symptoms, have depressed IL-10 production, and have been successfully treated with IL-10 (Narula et al. 1998).
(§1) Vitamin D deficient IL-10 KO mice were randomly distributed into one of 4 groups. Controls remained vitamin D deficient for the entire 9-10 weeks of the experiment. Mice treated with 1α,25-dihydroxyvitamin D3 (hereinafter “1,25(OH)2D3”) were vitamin D deficient for 5 weeks and then received 5 ng/d in the diet for the remainder of the experiment. 2-MP treated mice were vitamin D deficient for 5 weeks and then received 720 ng/d in the diet for the remainder of the experiment. 2-MD treated mice were vitamin D deficient for 5 weeks and then received 0.12 ng/d in the diet for the remainder of the experiment. VDR KO IL10KO mice were bred with VDR KO mice and the double IL10/VDR KO mice are compared here.

Data set [1] is described as follows: Serum calcium and body weight of treated vitamin D deficient IL-10 KO mice. The format is in vivo, mice (C57BL/6). Particulars: in the diet: 1,25(OH)2D3 5 ng/d, 2-MP 720 ng/d, 2-MD 0.12 ng/d. As to the method:
as §1

A further data set concerns IL-10 knock-out mice. To be noted: cited from earlier work.

Marks after values point to notes of the source that are not given here.

Turning to `C=C1[C@H](O)CC(=C/C=C2\CCC[C@]3(C)C([C@@H](C)CCCC(C)(C)O)CC[C@@]23C)C[C@H]1O` (stereo partly drawn) [2-MD, 2-methylene-19-nor-20(S)-1α,25-dihydroxyvitamin D3], in the data set on IL-10 KO mice, the “Development of colitis symptoms (in words)” value is given as “effective at inhibiting and/or preventing the development of colitis symptoms”; the “Incidence (# with colitis/n)” value is reported as 0/9^c; the “SI/BW (small intestine weight / body weight, all mice in the group)” value is recorded as 5.3 ± 0.1^b %. In data set [1], the “BW (body weight)” value is listed as 20.8 ± 1.0^c g.

Turning to `C=C1[C@H](O)CC(=C/C=C2\CCC[C@]3(C)C(C(C)C)CC[C@@]23C)C[C@H]1O` (stereo partly drawn) [2-MP, 1α-hydroxy-2-methylene-19-nor-homopregnacalciferol], in the data set on IL-10 KO mice, the “Development of colitis symptoms (in words)” value was “effective at inhibiting and/or preventing the development of colitis symptoms”; the “Incidence (# with colitis/n)” value is listed as 0/8^c; the “SI/BW (small intestine weight / body weight, all mice in the group)” value is 5.4 ± 0.3^b %. Further, the “BW (body weight)” value in data set [1] was 20.2 ± 0.5^c g.

Regarding `C=C1/C(=C\C=C2/CCC[C@]3(C)[C@@H]([C@H](C)CCCC(C)(C)O)CC[C@@H]23)C[C@@H](O)C[C@@H]1O` [1,25(OH)2D3, 1α,25-dihydroxyvitamin D3, reference compound], in the data set on IL-10 KO mice, the “Incidence (# with colitis/n)” value is reported as 1/28^c and the “SI/BW (small intestine weight / body weight, all mice in the group)” value is 5.8 ± 0.3^b %. In data set [1], the “BW (body weight)” value is given as 20.8 ± 0.5^c g and the “Serum Calcium” value is recorded as 8.9 ± 0.3^a mg %. The “Prevention of IBD (in words)” value in the data set with IL-10 knock-out mice is on record as “can prevent IBD”.
